Measurements: patent publication US8178506B2, “Oligomeric compounds and compositions for use in modulation of small non-coding RNAs” (Regulus Therapeutics Inc., priority 2003, dated 2012)
In the oligonucleotide strings, read from the 5' end, every base follows the letter of its sugar. An asterisk marks phosphorothioate; unmarked linkages are phosphodiester. Other units and linkages are bracketed, terminal groups are in braces. A string of capitals states the bases alone. e = 2'-O-(2-methoxyethyl) (MOE); [5mC] = 5-methylcytosine; d = 2'-deoxy (DNA)

What was measured:
[1] = system: IL-6 mRNA; assay: IL-6 mRNA in LPS-activated primary murine macrophages; format: cell-based, mouse; conditions: for IL-6 mRNA expression, % UTC: average of 3 treatments; for IL-6 expression: IFN-gamma-stimulated and unstimulated cells, 75-600 nM
Protocol: (§1) To investigate the role of miRNAs in the immune response, oligomeric compounds of the present invention targeting miRNAs were tested for their effects upon lipopolysaccharide (LPS)-activated primary murine macrophages. Macrophages participate in the immune response, for example, in the recognition and phagocytosis of microorganisms, including bacteria. Interferon-gamma (IFN-gamma) released by helper T cells is one type of signal required for macrophage activation, and LPS can serve as an additional stimulus. LPS is a component of the gram-negative bacterial cell wall and acts as an agonist for toll-like receptor 4 (TLR4), the primary LPS receptor expressed by macrophages. The proinflammatory cytokines interleukin-12 (IL-12) and interleukin-6 (IL-6) are induced by LPS treatment of macrophages, thus the expression of the mRNAs encoding these cytokines was used to evaluate the response of macrophages to LPS following treatment with oligomeric compounds targeting miRNAs.
(§2) Macrophages were isolated as follows. Female C57B1/6 mice (Charles River Laboratories, Wilmington, Mass.) were injected intraperitoneally with 1 ml 3% thioglycollate broth (Sigma-Aldrich, St. Louis, Mo.), and peritoneal macrophage cells were isolated by peritoneal lavage 4 days later. The cells were plated in 96-well plates at 40,000 cells/well for one hour in serum-free RPMI adjusted to contain 10 mM HEPES (Invitrogen Life Technologies, Carlsbad, Calif.), allowed to adhere, then non-adherent cells were washed away and the media was replaced with RPMI containing 10 mM HEPES, 10% FBS and penicillin/streptomycin (“complete” RPMI; Invitrogen Life Technologies, Carlsbad, Calif.).
(§3) Oligomeric compounds were introduced into the cells using the non-liposomal transfection reagent FuGENE 6 Transfection Reagent (Roche Diagnostics Corp., Indianapolis, Ind.). Oligomeric compound was mixed with FuGENE 6 in 1 mL of serum-free RPMI to achieve a concentration of 10 μL FuGENE per 1000 nM oligomeric compound. The oligomeric compound/FuGENE complex was allowed to form at room temperature for 20 minutes. This mixture was diluted to the desired concentration of oligomeric compound by the addition of the appropriate volume of complete RPMI. The final ratio of FuGENE 6 to oligomeric compound was 1 μL of FuGENE 6 per 100 nM oligomeric compound. A volume of 100 μL of oligomeric compound/FuGENE/RPMI was added to each well of the 96-well plate in which the macrophages were cultured. Each oligomeric compound treatment was repeated in triplicate.
(§4) Following oligomeric compound treatment, cells were stimultated with LPS. Cells were cultured in the presence of the transfection complex for approximately 24 to 28 hours at 37° C. and 5% CO2, after which the medium containing the transfection complex was removed from the cells, and complete RPMI containing 100 ng/mL LPS (Sigma-Aldrich Corp., St. Louis, Mo.) was added to the cells for a period of approximately 24 hours. Control samples included (1) cells receiving no oligomeric compound, stimulated with LPS and (2) cells receiving neither oligomeric compound nor LPS treatment.
(§5) In another embodiment, following oligomeric compound treatment, cells were first activated by IFN-gamma, to amplify the response to LPS. Cells were cultured in the presence of the transfection complex for approximately 24 hours at 37° C. and 5% CO2, at which point the medium containing the transfection complex was removed from the cells, and complete RPMI containing 100 ng/mL recombinant mouse IFN-gamma (R&D Systems, Minneapolis, Minn.) was added to the cells. After the 4 hour treatment with INF-gamma, cells were treated with 100 ng/mL LPS for approximately 24 hours. Control samples included (1) cells receiving no oligomeric compound, stimulated with LPS and (2) cells receiving neither oligomeric compound nor LPS treatment. […]

[2] = system: IL-12 mRNA; assay: IL-12 mRNA in LPS-activated primary murine macrophages; format: cell-based, mouse; conditions: for IL-12 mRNA expression, % UTC: LPS, average of 3 treatments; for IL-12 mRNA expression, +IFN % UTC: 300 nM oligomeric compound, stimulation with IFN-gamma and LPS, average of 2 experiments
Protocol: as §1, §2, §3, §4, §5

[3] = system: HeLa cells; assay: Cell cycle assay in HeLa cells; format: cell-based, human; conditions: HeLa, 150 nM
[4] = system: PEPCK-c; assay: PEPCK-c mRNA expression in HepG2 cells; format: cell-based, human; conditions: HepG2, 1 nM insulin, 100 nM
[5] = system: A549 cells; assay: Cell cycle assay in A549 cells; format: cell-based, human; conditions: A549, 25-, 50-, 100-, or 150 nM
Protocol: In accordance with the present invention, certain oligomeric compounds targeting miRNAs were selected for dose response studies. Using the cell cycle assay described above, the cell cycle profiles of HeLa or A549 cells treated with varying concentrations of oligomeric compounds of the present invention were assessed.
Concomittent decreases in the percentage of cells in G1-phase of the cell cycle and increases in the percentage of hypodiploid (subG1) cells were also observed.
In a further study, A549 cells were treated with 25-, 50-, 100- or 150 nM of the oligomeric compounds ISIS Numbers 338637 (SEQ ID NO: 464) targeted against mir-96, and ISIS 338769 (SEQ ID NO: 596) targeted against mir-130b, ISIS 338836 (SEQ ID NO: 663) targeted against mir-23a, and ISIS 340350 (SEQ ID NO: 855) targeted against mir-95 (Mourelatos). Cells treated with increasing concentrations of oligomeric compounds were compared to untreated cells, to assess the dose-responsiveness of the observed delay or arrest. The random-mer ISIS 29848 was used as a negative control. Cells were prepared for flow cytometry 24-hours after oligonucleotide treatment. Results of these dose response studies are shown in Table 34, where data are expressed as percentage of cells in each phase relative to the untreated control cells in that phase.

[6] = system: HuVECs; assay: Endothelial tube formation assay in HuVECs; conditions: 75 nM
[7] = system: T47D cells; assay: Caspase-3 activity assay (apoptosis) in T47D cells; conditions: caspase assay, 200 nM; conclusion from Tables 9-12
[8] = normalized to LPS-treated cells without oligomeric compound

In the case of “229927 (antisense e[5mC]*e[5mC]*eA*e[5mC]*eA*dT*dT*dG*dA*dG*dT*dT*dT*d[5mC]*dT*eT*eT*eA*eA*eG) [compound 229927]”, the “IL-6 mRNA expression, % UTC” value ([1]; 75 nM, +IFN) is reported as 54 % UTC, the “IL-6 mRNA expression, % UTC” value ([1]; 75 nM, −IFN) is reported as 57 % UTC and the “IL-6 mRNA expression, % UTC” value ([1]; 150 nM, +IFN) is reported as 39 % UTC. For the same substance, the “IL-6 mRNA expression, % UTC” value ([1]; 150 nM, −IFN) was 52 % UTC, the “IL-6 mRNA expression, % UTC” value ([1]; 300 nM, +IFN) was 40 % UTC and the “IL-6 mRNA expression, % UTC” value ([1]; 300 nM, −IFN) was 44 % UTC. The “IL-6 mRNA expression, % UTC” value ([1]; 600 nM, +IFN) was 69 % UTC, the “IL-6 mRNA expression, % UTC” value ([1]; 600 nM, −IFN) was 104 % UTC and the “IL-12 mRNA expression, % UTC” value ([2]; 75 nM, +IFN) was 46 % UTC. For the same substance, the “IL-12 mRNA expression, % UTC” value ([2]; 75 nM, −IFN) was 67 % UTC, the “IL-12 mRNA expression, % UTC” value ([2]; 150 nM, +IFN) was 35 % UTC and the “IL-12 mRNA expression, % UTC” value ([2]; 150 nM, −IFN) was 53 % UTC. The “IL-12 mRNA expression, −IFN % UTC” value ([2]; 300 nM oligomeric compound and LPS, no IFN-gamma pretreatment, single experiment, normalized to LPS-treated cells without oligomeric compound) was 92 % UTC, the “IL-12 mRNA expression, +IFN % UTC” value [2, 8] was 145 % UTC and the “IL-12 mRNA expression, % UTC” value ([2]; 300 nM, +IFN) was 16 % UTC. For the same substance, the “IL-12 mRNA expression, % UTC” value ([2]; 300 nM, −IFN) was 45 % UTC, the “IL-12 mRNA expression, % UTC” value ([2]; 600 nM, +IFN) was 8 % UTC and the “IL-12 mRNA expression, % UTC” value ([2]; 600 nM, −IFN) was 46 % UTC.
For “AACCCACCGACAGCAATGAATGTT (chemistry not given here) [ISIS 327941, uniform 2′-MOE PS; targets mir-181b]”, the IL-6 expression [1] was “increased in a dose-dependent manner” and the “IL-12 mRNA expression, % of the untreated control” value ([2]; IFN-gamma then LPS, all doses) was “less than 5%”.
In the case of “ISIS 328342: SEQ ID NO: 451, targeting mir-203 (e[5mC]*eA*eA*eT*eT*dG*d[5mC]*dG*d[5mC]*dT*dA*d[5mC]*dA*dG*dA*eA*e[5mC]*eT*eG*eT)”, the “phase of the cell cycle in which cells arrest or delay” value (“phase of the cell cycle” for short) ([3]; both 24 and 48 hours) is reported as “G2/M-phase”, the “reduction of PEPCK-c mRNA expression” value [4] is reported as 61% and the “G2/M delay or arrest, dose response” value [5] is reported as “dose-responsive G2/M delay or arrest”.
With “CTTCCAGTCGGGGATGTTTACA (anti-miR; chemistry not fully specified) [ISIS 327921, uniform 2′-MOE PS; targets mir-30d]” the IL-6 expression [1] was “increased in a dose-dependent manner”, the “IL-12 expression, % of the control” value ([2]; IFN-gamma then LPS, 75 nM) was 14% and the “IL-12 expression, % of the untreated control” value ([2]; IFN-gamma then LPS, all other doses (150, 300, 600 nM)) was “less than 10%”. The “IL-12 expression, percentage of untreated control” value ([2]; LPS alone, 75, 150, 300 and 600 nM) was ≥ 53% and the “IL-12 mRNA expression” value ([2]; LPS-stimulated primary murine macrophages) was “inhibited IL-12 mRNA expression in a dose-dependent manner”.
With “GGCTGTCAATTCATAGGTCAG (anti-miR; chemistry not fully specified) [ISIS 327902, uniform 2′-MOE PS; targets mir-192-1]” the “phase of the cell cycle” value ([3]; 24 hours) was “G2/M-phase”, the “phase of the cell cycle” value ([3]; 48 hours) was “S- and G2/M-phases” and the tube formation [6] was “suppressed tube formation”. For the same substance, the “G2/M delay or arrest, dose response” value [5] was “dose-responsive G2/M delay or arrest”.
“ISIS 328383: chimeric 2′-MOE gapmer targeted against the mir-192-1 precursor (eA*eG*eA*eG*eG*dG*dG*dA*dG*dA*d[5mC]*dG*dA*dG*dA*eG*e[5mC]*eA*e[5mC]*eT)” was tested, and the “phase of the cell cycle” value ([3]; 24 hours) was “G2/M-phase”, the “phase of the cell cycle” value ([3]; 48 hours) was “S- and G2/M-phases” and the “apoptosis in T47D cells” value [7] was “induce apoptosis”. The “G2/M delay or arrest, dose response” value [5] was “dose-responsive G2/M delay or arrest”.
In the case of “289606 (antisense CCUUCCCUGAAGGUUCCUCC; all 2'-MOE, all C 5-methyl, all phosphorothioate, T or U not given here) [compound 289606]”, the “IL-6 mRNA expression, % UTC” value ([1]; 75 nM, +IFN) is reported as 78 % UTC, the “IL-6 mRNA expression, % UTC” value ([1]; 75 nM, −IFN) is reported as 77 % UTC and the “IL-6 mRNA expression, % UTC” value ([1]; 150 nM, +IFN) is reported as 69 % UTC. For the same substance, the “IL-6 mRNA expression, % UTC” value ([1]; 150 nM, −IFN) was 68 % UTC, the “IL-6 mRNA expression, % UTC” value ([1]; 300 nM, +IFN) was 70 % UTC and the “IL-6 mRNA expression, % UTC” value ([1]; 300 nM, −IFN) was 65 % UTC. For the same substance, the “IL-6 mRNA expression, % UTC” value ([1]; 600 nM, +IFN) was 59 % UTC, the “IL-6 mRNA expression, % UTC” value ([1]; 600 nM, −IFN) was 77 % UTC and the “IL-12 mRNA expression, % UTC” value ([2]; 75 nM, +IFN) was 59 % UTC. For the same substance, the “IL-12 mRNA expression, % UTC” value ([2]; 75 nM, −IFN) was 89 % UTC, the “IL-12 mRNA expression, % UTC” value ([2]; 150 nM, +IFN) was 46 % UTC and the “IL-12 mRNA expression, % UTC” value ([2]; 150 nM, −IFN) was 99 % UTC. The “IL-12 mRNA expression, +IFN % UTC” value [2, 8] was 129 % UTC, the “IL-12 mRNA expression, % UTC” value ([2]; 300 nM, +IFN) was 52 % UTC and the “IL-12 mRNA expression, % UTC” value ([2]; 300 nM, −IFN) was 80 % UTC. For the same substance, the “IL-12 mRNA expression, % UTC” value ([2]; 600 nM, +IFN) was 66 % UTC and the “IL-12 mRNA expression, % UTC” value ([2]; 600 nM, −IFN) was 98 % UTC.
